Results on 28 compounds are retold here after patent US20230157996A1, “SMALL-MOLECULE INHIBITOR TARGETING EB VIRUS NUCLEAR ANTIGEN PROTEIN, PREPARATION METHOD AND USE THEREOF” (priority 2020, published 2023).

Structures are written as SMILES. Like-named read-outs stand apart in the source and are kept apart here.

For the experiment, the system named is C666-1 cells. As to the kind of experiment: C666-1 cell viability single concentration (50 μM) inhibition rate (Resazurin). In kind it is cell-based. The note with it: Homo sapiens, C6661, 72 h, read-out: C666-1 cell viability single concentration (50 μM) inhibition rate, Ratio* (Inh %). On the procedure:
In order to assess the effect of the EBNA1 inhibitor at the cellular level, the cell proliferation inhibition rate was tested, and the inhibition rate of inhibitor at a specific concentration on the proliferation of Epstein-Barr virus positive cell line C666-1 was detected.
In the test, 100 μL C666-1 cells were inoculated in a transparent 96-well plate, and each well contained 5×10^3 cells. After the cells were cultured in an incubator with 5% carbon dioxide at 37° C. for 24 hours, 10 μL compound at a concentration of 500 μmol/L was added into the cells, so that the final concentration of the compound was 50 μmol/L. Two replicate wells were set for each compound, the wells treated with DMSO were set as control wells (Ctrl), and the wells with cell culture medium only were set as blank wells (blank), and they were treated in the incubator with carbon dioxide at 37° C. for 72 hours. The cell viability was assessed using a redox indicator Resazurin. Specifically, 10 μL Resazurin at a concentration of 600 umol/L was added into each well, and incubated at 37° C. for 3 hours, and a Tecan microplate reader was used to detect the fluorescence signal at an excitation wavelength of 560 nm and an emission wavelength of 590 nm. The formula inh %=1−(F−Fblank)/(FCtrl−Fblank)×100% (where, F is the fluorescence intensity of the compound-added wells, FCtrl and Fblank are the readings of the control wells and blank wells, respectively) was used to calculate the inhibition rate of the compound on the proliferation of C666-1 cells, so as to assess the activity of the compound on Epstein-Barr virus positive cells.

[1] abbreviates: 50 μM compound, 72 hours, C666-1 cells.

`CCCCOc1ccc(OC2CN(c3cccc(C(=O)O)c3-n3cccc3)C2)cc1` [Example 108, 3-(3-(4-butoxyphenoxy)azetidin-1-yl)-2-(1H-pyrrol-1-yl)benzoic acid]: the inhibition at 50 µM under setting [1] is < 10%.
Same read-out and setting: the same measure for `COC(=O)c1cccc(N2CC(Oc3cccc(NC(=O)Nc4ccc(OC(F)(F)F)cc4)c3)C2)c1-n1cccc1` [Example 295, Methyl 3-(3-(3-(3-(4-(trifluoromethoxy)phenyl)ureido)phenoxy)azetidin-1-yl)-2-(1H-pyrrol-1-yl)benzoate]: > 50%.
For `CC(=O)OC(c1ccc(C(F)(F)F)nc1)C12CC(c3cccc(C(=O)O)c3)(C1)C2` (stereo not shown) [Compound 2, 3-(3-(acetoxyl(6-(trifluoromethyl)pyridin-3-yl)methyl)bicyclo[1.1.1]pentan-1-yl)benzoic acid], under setting [1], the inhibition at 50 µM is < 10%.
As for `CNCCOc1ccc(OC2CN(c3cccc(C(=O)OC)c3-n3cccc3)C2)cc1` [Example 309, Methyl 3-(3-(4-(2-(methylamino)ethoxy)phenoxy)azetidin-1-yl)-2-(1H-pyrrol-1-yl)benzoate], under setting [1], the inhibition at 50 µM fell in the range of 10 to 30%.
As to `COC(=O)c1cccc(N2CC(Oc3ccc(Cl)nc3)C2)c1-n1cccc1` [Compound 85, Methyl 3-(3-((6-chloropyridin-3-yl)oxy)azetidin-1-yl)-2-(1H-pyrrol-1-yl)benzoate], the inhibition at 50 µM under setting [1] was > 50%.
As for `COC(=O)c1cccc(N2CC(Oc3ccc(OCCN)cc3)C2)c1-n1cccc1` [Example 310, Methyl 3-(3-(4-(2-aminoethoxy)phenoxy)azetidin-1-yl)-2-(1H-pyrrol-1-yl)benzoate], under setting [1], the inhibition at 50 µM is < 10%.
Still for that read-out and setting: the same measure for `CCNC(=S)NC1CN(c2cccc(C(=O)OC)c2-n2cccc2)C1` [Example 172, Methyl 3-(3-(3-ethylthioureido)azetidin-1-yl)-2-(1H-pyrrol-1-yl)benzoate]: 10 to 30%; for `Nc1ccc(OC2CN(c3cccc(C(=O)O)c3-n3cccc3)C2)cc1` [Example 254, 3-(3-(4-aminophenoxy)azetidin-1-yl)-2-(1H-pyrrol-1-yl)benzoic acid]: < 10%.
As to `O=C(O)c1cccc(C#CN(Cc2ccccc2)S(=O)(=O)c2ccccc2)c1-n1cccc1` [Example 341, 3-((N-benzyl-N-phenylsulfonamido)ethynyl)-2-(1H-pyrrol-1-yl)benzoic acid], the inhibition at 50 µM is < 10%.
With `COC(=O)c1cccc(N2CC(OCc3ccc(OC)cc3)C2)c1-n1cccc1` [Example 139, Methyl 3-(3-((4-methoxybenzyl)oxy)azetidin-1-yl)-2-(1H-pyrrol-1-yl)benzoate], the inhibition at 50 µM under setting [1] is < 10%.
Turning to `COC(=O)c1cccc(C#CN(Cc2ccc(F)cc2)S(=O)(=O)c2cccs2)c1-n1cccc1` [Example 326, Methyl 3-((N-(4-fluorobenzyl)thiophen-2-sulfonamido)ethynyl)-2-(1H-pyrrol-1-yl)benzoate], under setting [1], the inhibition at 50 µM lay in the range of 30 to 50%.
`COC(=O)c1cccc(N2CC(Oc3ccc(C#N)cc3)C2)c1-n1cccc1` [Compound 93, Methyl 3-(3-(4-cyanophenoxy)azetidin-1-yl)-2-(1H-pyrrol-1-yl)benzoate]: the inhibition at 50 µM under setting [1] was 30 to 50%.
Same read-out and setting: as for `COC(=O)c1cccc(N2CC(N(Cc3ccccc3)S(=O)(=O)c3ccc(C)cc3)C2)c1-n1cccc1` [Example 184, Methyl 3-(3-((N-benzyl-4-methylphenyl)sulfonamido)azetidin-1-yl)-2-(1H-pyrrol-1-yl)benzoate], the figure is < 10%; as for `COC(=O)c1cccc(N2CC(Oc3ccc(CO)cc3)C2)c1-c1ccccc1` [Compound 41, Methyl 6-(3-(4-(hydroxymethyl)phenoxy)azetidin-1-yl)-[1,1′-biphenyl]-2-formate], 10 to 30%; as for `COC(=O)c1cccc(C#CN(Cc2ccccc2)S(=O)(=O)c2ccc(C)cc2)c1-n1cccc1` [Example 271, Methyl 3-(((N-benzyl-4-methylphenyl)sulfonamido)ethynyl)-2-(1H-pyrrol-1-yl)benzoate], > 50%.
In the case of `O=C(O)c1cccc(OC2CN(c3cccc(C(=O)O)c3-n3cccc3)C2)c1` [Compound 73, 3-(3-(3-carboxylphenoxy)azetidin-1-yl)-2-(1H-pyrrol-1-yl)benzoic acid], under setting [1], the inhibition at 50 µM was < 10%.
Regarding `O=C(O)c1cccc(N2CC(Oc3ccc(CO)cc3)C2)c1-n1cccn1` [Compound 70, 3-(3-(4-(hydroxymethyl)phenoxy)azetidin-1-yl)-2-(1H-pyrazol-1-yl)benzoic acid], the inhibition at 50 µM under setting [1] is < 10%.
Still for that read-out and setting: as for `COC(=O)c1cccc(N2CC(Oc3ccc(Oc4ccccc4)c(F)c3)C2)c1-n1cccc1` [Example 200, Methyl 3-(3-(3-fluoro-4-phenoxyphenoxy)azetidin-1-yl)-2-(1H-pyrrol-1-yl)benzoate], the figure is < 10%; as for `COC(=O)c1cccc(N2CC(Oc3ccc(CN4CCOCC4)cc3)C2)c1-n1cccc1` [Example 235, Methyl 3-(3-(4-(morpholinylmethyl)phenoxy)azetidin-1-yl)-2-(1H-pyrrol-1-yl)benzoate], 30 to 50%.
The same measure, in the same setting: the same measure for `CC(O)c1ccc(OC2CN(c3cccc(C(=O)O)c3-n3cccc3)C2)cc1` (stereo not shown) [Compound 90, 3-(3-(4-(1-hydroxyethyl)phenoxy)azetidin-1-yl)-2-(1H-pyrrol-1-yl)benzoic acid]: < 10%; for `COC(=O)c1cccc(C#CN(Cc2ccccc2)S(=O)(=O)c2ccccc2)c1-n1cccc1` [Example 340, Methyl 3-((N-benzyl-N-phenylsulfonamido)ethynyl)-2-(1H-pyrrol-1-yl)benzoate]: < 10%; for `O=C(O)c1cccc(N2CC(Oc3ccc(CO)cc3)C2)c1-c1ccc2ccsc2c1` [Compound 44, 2-(benzo[b]thiophen-6-yl)-3-(3-(4-(hydroxymethyl)phenoxy)azetidin-1-yl)benzoic acid]: < 10%.
Still for that read-out and setting: as for `COC(=O)c1cccc(N2CC3(CN(c4ccccc4N)C3)C2)c1N` [Example 275, Methyl 2-amino-3-(6-(2-aminophenyl)-2,6-diazaspiro[3.3]heptan-2-yl)benzoate], the figure is 10 to 30%.
Consider `COC(=O)c1cccc(N2CC(Sc3ccc(C)cc3)C2)c1-n1cccc1` [Example 190, Methyl 2-(1H-pyrrol-1-yl)-3-(3-(p-tolylthio)azetidin-1-yl)benzoate], for which, under setting [1], the inhibition at 50 µM was < 10%.
For `COC(=O)c1cccc(N2CC(NC(=O)NC3CC3)C2)c1-n1cccc1` [Example 164, Methyl 3-(3-(3-cyclopropylureido)azetidin-1-yl)-2-(1H-pyrrol-1-yl)benzoate], the inhibition at 50 µM under setting [1] was < 10%.
`COC(=O)c1cccc(N2CC(Oc3ccc(COc4cccc(C(F)(F)F)c4)cc3)C2)c1-n1cccc1` [Example 249, Methyl 3-(3-(4-((3-(trifluoromethyl)phenoxy)methyl)phenoxy)azetidin-1-yl)-2-(1H-pyrrol-1-yl)benzoate]: the inhibition at 50 µM under setting [1] was < 10%.
Regarding `CS(=O)(=O)N(C#Cc1cccc(C(=O)O)c1-n1cccc1)Cc1ccccc1` [Example 382, Lithium 3-((N-benzylmethylsulfonamido)ethynyl)-2-(1H-pyrrol-1-yl)benzoate], the inhibition at 50 µM is < 10%.
Regarding `COC(=O)c1cccc(N2CC(Oc3ccc(COc4ccccc4)cc3)C2)c1-n1cccc1` [Example 114, Methyl 3-(3-(4-(phenoxymethyl)phenoxy)azetidin-1-yl)-2-(1H-pyrrol-1-yl)benzoate], the inhibition at 50 µM under setting [1] was in the range of 10 to 30%.
